{"source": "paper PMC11397024", "about": "“Strategic Fluorination to Achieve a Potent, Selective, Metabolically Stable, and Orally Bioavailable Inhibitor of CSNK2” (Molecules, 2024)", "test_in_all_cases": "NanoBRET K192", "type_in_all_cases": "cell-based", "settings_in_all_cases": "HEK293", "key": {"PAK6": {"biological_target": "T1, PAK6 (Homo sapiens, UniProt Q9NQU5)", "T1 construct": "purchased Promega (NanoBRET Target Engagement K192 Kinase Selectivity System)", "outline": "(§1)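 HEK293 cells were transfected overnight with NanoLuc–kinase fusion vectors, then treated for 2 h at 37 °C with compound (added as 100 μM working solution) plus K10 tracer. BRET was read at 450/610 nm after substrate and extracellular inhibitor, and fractional occupancy was calculated against no-compound controls.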"}, "WEE1": {"biological_target": "T2, WEE1 (Homo sapiens, UniProt P30291)", "T2 construct": "purchased Promega (NanoBRET Target Engagement K192 Kinase Selectivity System)", "outline": "as §1"}, "SIK1": {"biological_target": "T3, SIK1 (Homo sapiens, UniProt P57059)", "T3 construct": "purchased Promega (NanoBRET Target Engagement K192 Kinase Selectivity System)", "outline": "as §1"}, "HIPK3": {"biological_target": "T4, HIPK3 (Homo sapiens, UniProt Q9H422)", "T4 construct": "purchased Promega (NanoBRET Target Engagement K192 Kinase Selectivity System)", "outline": "as §1"}, "CHEK2": {"biological_target": "T5, CHEK2 (Homo sapiens, UniProt O96017)", "T5 construct": "purchased Promega (NanoBRET Target Engagement K192 Kinase Selectivity System)", "outline": "as §1"}, "ERN1": {"biological_target": "T6, ERN1 (Homo sapiens, UniProt O75460)", "T6 construct": "purchased Promega (NanoBRET Target Engagement K192 Kinase Selectivity System)", "T6 sequence (O75460 19-977)": "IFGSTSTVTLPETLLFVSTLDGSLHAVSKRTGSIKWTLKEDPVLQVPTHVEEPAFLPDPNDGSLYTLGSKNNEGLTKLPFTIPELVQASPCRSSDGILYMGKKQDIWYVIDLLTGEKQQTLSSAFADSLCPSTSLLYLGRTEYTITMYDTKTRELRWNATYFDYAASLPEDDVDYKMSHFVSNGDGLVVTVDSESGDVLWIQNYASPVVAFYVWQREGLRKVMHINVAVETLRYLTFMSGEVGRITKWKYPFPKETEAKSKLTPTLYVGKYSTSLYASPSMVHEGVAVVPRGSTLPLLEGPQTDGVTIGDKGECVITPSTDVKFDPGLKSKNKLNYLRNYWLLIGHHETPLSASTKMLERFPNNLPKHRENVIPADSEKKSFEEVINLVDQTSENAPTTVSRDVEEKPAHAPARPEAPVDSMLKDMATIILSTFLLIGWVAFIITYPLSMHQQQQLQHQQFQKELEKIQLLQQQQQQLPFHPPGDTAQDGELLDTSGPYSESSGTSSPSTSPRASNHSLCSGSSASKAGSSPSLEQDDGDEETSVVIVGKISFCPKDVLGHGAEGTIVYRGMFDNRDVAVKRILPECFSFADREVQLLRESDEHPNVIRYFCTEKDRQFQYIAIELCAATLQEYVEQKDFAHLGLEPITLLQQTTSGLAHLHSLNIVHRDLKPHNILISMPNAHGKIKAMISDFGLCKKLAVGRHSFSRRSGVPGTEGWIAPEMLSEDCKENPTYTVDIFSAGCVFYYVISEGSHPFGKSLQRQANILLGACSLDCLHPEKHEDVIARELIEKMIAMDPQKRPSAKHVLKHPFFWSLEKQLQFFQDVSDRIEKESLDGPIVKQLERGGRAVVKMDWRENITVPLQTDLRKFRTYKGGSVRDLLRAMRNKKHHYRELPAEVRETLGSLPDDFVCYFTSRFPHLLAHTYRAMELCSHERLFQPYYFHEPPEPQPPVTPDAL", "outline": "as §1"}, "PKMYT1": {"biological_target": "T7, PKMYT1 (Homo sapiens, UniProt Q99640)", "T7 construct": "purchased Promega (NanoBRET Target Engagement K192 Kinase Selectivity System)", "outline": "as §1"}, "FYN": {"biological_target": "T8, FYN (Homo sapiens, UniProt P06241)", "T8 construct": "purchased Promega (NanoBRET Target Engagement K192 Kinase Selectivity System)", "outline": "as §1"}, "TYRO3": {"biological_target": "T9, TYRO3 (Homo sapiens, UniProt Q06418)", "T9 construct": "purchased Promega (NanoBRET Target Engagement K192 Kinase Selectivity System)", "outline": "as §1"}, "JAK3": {"biological_target": "T10, JAK3 (Homo sapiens, UniProt P52333)", "T10 construct": "purchased Promega (NanoBRET Target Engagement K192 Kinase Selectivity System)", "outline": "as §1"}, "NEK2": {"biological_target": "T11, NEK2 (Homo sapiens, UniProt P51955)", "T11 construct": "purchased Promega (NanoBRET Target Engagement K192 Kinase Selectivity System)", "outline": "as §1"}, "PRKCE": {"biological_target": "T12, PRKCE (Homo sapiens, UniProt Q02156)", "T12 construct": "purchased Promega (NanoBRET Target Engagement K192 Kinase Selectivity System)", "outline": "as §1"}, "CDK14 + Y": {"biological_target": "T13, CDK14 + Y (Homo sapiens, UniProt O94921)", "T13 construct": "purchased Promega (NanoBRET Target Engagement K192 Kinase Selectivity System)", "outline": "as §1"}, "MYLK4": {"biological_target": "T14, MYLK4 (Homo sapiens, UniProt Q86YV6)", "T14 construct": "purchased Promega (NanoBRET Target Engagement K192 Kinase Selectivity System)", "T14 sequence (Q86YV6 whole entry)": "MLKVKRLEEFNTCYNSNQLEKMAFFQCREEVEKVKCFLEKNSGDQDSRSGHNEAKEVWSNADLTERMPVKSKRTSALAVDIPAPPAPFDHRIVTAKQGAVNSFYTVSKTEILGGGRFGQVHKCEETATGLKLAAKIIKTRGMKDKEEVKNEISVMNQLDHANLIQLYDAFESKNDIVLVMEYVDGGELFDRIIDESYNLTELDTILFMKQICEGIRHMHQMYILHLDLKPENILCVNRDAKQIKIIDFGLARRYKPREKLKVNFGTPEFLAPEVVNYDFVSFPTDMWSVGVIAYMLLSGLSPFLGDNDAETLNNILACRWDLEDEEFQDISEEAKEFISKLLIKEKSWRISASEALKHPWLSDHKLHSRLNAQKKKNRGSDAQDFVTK", "outline": "as §1"}, "WEE2": {"biological_target": "T15, WEE2 (Homo sapiens, UniProt P0C1S8)", "T15 construct": "purchased Promega (NanoBRET Target Engagement K192 Kinase Selectivity System)", "outline": "as §1"}, "CDKL5": {"biological_target": "T16, CDKL5 (Homo sapiens, UniProt O76039)", "T16 construct": "purchased Promega (NanoBRET Target Engagement K192 Kinase Selectivity System)", "outline": "as §1"}, "PRKACB": {"biological_target": "T17, PRKACB (Homo sapiens, UniProt P22694)", "T17 construct": "purchased Promega (NanoBRET Target Engagement K192 Kinase Selectivity System)", "outline": "as §1"}, "CAMK2D": {"biological_target": "T18, CAMK2D (Homo sapiens, UniProt Q13557)", "T18 construct": "purchased Promega (NanoBRET Target Engagement K192 Kinase Selectivity System)", "outline": "as §1"}, "EPHB1": {"biological_target": "T19, EPHB1 (Homo sapiens, UniProt P54762)", "T19 construct": "purchased Promega (NanoBRET Target Engagement K192 Kinase Selectivity System)", "outline": "as §1"}, "SBK3": {"biological_target": "T20, SBK3 (Homo sapiens, UniProt P0C264)", "T20 construct": "purchased Promega (NanoBRET Target Engagement K192 Kinase Selectivity System)", "T20 sequence (P0C264 whole entry)": "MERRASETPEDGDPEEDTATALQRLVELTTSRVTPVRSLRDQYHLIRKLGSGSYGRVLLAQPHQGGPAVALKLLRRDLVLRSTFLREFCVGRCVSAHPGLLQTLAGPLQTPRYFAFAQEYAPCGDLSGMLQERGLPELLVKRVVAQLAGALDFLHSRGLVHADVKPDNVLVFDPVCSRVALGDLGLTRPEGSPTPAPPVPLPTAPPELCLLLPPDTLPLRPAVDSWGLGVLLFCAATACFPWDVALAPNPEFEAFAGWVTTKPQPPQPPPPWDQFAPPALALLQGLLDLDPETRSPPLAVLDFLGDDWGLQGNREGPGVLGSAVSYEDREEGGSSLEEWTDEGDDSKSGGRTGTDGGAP", "outline": "as §1"}, "RIPK1": {"biological_target": "T21, RIPK1 (Homo sapiens, UniProt Q13546)", "T21 construct": "purchased Promega (NanoBRET Target Engagement K192 Kinase Selectivity System)", "outline": "as §1"}, "RPS6KA1": {"biological_target": "T22, RPS6KA1 (Homo sapiens, UniProt Q15418)", "T22 construct": "purchased Promega (NanoBRET Target Engagement K192 Kinase Selectivity System)", "outline": "as §1"}, "STK35": {"biological_target": "T23, STK35 (Homo sapiens, UniProt Q8TDR2)", "T23 construct": "purchased Promega (NanoBRET Target Engagement K192 Kinase Selectivity System)", "outline": "as §1"}, "SNRK": {"biological_target": "T24, SNRK (Homo sapiens, UniProt Q9NRH2)", "T24 construct": "host or cells: HEK293", "T24 sequence (Q9NRH2 whole entry)": "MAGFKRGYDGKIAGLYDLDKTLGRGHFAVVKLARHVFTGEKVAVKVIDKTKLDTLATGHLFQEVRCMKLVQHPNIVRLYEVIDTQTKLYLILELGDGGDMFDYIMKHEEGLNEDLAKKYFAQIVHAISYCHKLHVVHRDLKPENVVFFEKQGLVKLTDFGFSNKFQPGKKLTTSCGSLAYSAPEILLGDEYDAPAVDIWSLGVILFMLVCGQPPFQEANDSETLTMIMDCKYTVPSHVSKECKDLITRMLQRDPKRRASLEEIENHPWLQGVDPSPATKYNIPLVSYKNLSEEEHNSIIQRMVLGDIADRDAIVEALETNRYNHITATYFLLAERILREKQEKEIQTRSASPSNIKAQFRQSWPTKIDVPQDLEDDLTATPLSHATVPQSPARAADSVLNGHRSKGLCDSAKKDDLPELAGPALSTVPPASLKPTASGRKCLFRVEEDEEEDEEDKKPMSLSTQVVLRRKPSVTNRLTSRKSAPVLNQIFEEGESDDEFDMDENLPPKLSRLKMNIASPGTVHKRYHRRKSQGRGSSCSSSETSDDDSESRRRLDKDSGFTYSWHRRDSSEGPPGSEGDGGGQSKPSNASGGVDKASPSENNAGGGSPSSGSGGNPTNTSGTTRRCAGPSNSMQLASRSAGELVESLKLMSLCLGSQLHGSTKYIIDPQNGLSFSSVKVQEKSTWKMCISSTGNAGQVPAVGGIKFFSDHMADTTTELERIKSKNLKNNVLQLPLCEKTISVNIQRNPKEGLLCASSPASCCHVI", "outline": "as §1"}, "DYRK1B": {"biological_target": "T25, DYRK1B (Homo sapiens, UniProt Q9Y463)", "T25 construct": "purchased Promega (NanoBRET Target Engagement K192 Kinase Selectivity System)", "outline": "as §1"}, "MAP3K2": {"biological_target": "T26, MAP3K2 (Homo sapiens, UniProt Q9Y2U5)", "T26 construct": "purchased Promega (NanoBRET Target Engagement K192 Kinase Selectivity System)", "outline": "as §1"}, "PRKAA1": {"biological_target": "T27, PRKAA1 (Homo sapiens, UniProt Q13131)", "T27 construct": "purchased Promega (NanoBRET Target Engagement K192 Kinase Selectivity System)", "T27 sequence (Q13131 whole entry)": "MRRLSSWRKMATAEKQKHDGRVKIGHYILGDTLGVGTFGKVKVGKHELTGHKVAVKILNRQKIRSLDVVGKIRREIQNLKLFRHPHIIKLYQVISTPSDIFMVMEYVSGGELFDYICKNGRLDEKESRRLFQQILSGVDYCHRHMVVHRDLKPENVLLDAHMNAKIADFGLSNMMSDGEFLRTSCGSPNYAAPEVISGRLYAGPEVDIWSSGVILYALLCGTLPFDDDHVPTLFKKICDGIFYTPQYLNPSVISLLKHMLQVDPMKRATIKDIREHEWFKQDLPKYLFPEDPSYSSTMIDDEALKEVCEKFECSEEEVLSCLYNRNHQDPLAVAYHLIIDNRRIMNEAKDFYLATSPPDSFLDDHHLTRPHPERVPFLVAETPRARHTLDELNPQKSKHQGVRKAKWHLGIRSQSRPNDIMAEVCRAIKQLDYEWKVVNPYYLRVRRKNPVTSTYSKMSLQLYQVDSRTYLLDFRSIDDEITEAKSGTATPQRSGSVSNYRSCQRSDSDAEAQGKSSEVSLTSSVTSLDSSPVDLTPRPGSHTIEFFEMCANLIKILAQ", "outline": "as §1"}, "TEC": {"biological_target": "T28, TEC (Homo sapiens, UniProt P42680)", "T28 construct": "purchased Promega (NanoBRET Target Engagement K192 Kinase Selectivity System)", "T28 sequence (P42680 whole entry)": "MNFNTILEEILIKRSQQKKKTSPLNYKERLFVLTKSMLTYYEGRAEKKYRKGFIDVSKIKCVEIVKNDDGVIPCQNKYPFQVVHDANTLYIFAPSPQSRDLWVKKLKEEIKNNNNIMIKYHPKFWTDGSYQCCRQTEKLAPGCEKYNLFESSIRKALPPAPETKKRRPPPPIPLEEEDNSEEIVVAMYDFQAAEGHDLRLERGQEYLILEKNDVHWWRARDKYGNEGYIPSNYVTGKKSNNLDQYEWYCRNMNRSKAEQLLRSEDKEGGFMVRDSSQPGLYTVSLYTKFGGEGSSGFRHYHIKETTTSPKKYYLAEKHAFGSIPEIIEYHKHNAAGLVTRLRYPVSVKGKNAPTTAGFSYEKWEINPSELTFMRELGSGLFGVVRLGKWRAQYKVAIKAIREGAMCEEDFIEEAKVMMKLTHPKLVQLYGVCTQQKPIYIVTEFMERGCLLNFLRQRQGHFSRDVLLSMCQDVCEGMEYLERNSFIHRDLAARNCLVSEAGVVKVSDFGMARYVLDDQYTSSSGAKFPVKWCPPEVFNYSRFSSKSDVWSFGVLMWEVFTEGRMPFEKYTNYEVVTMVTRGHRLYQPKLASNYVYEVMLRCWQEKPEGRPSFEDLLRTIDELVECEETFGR", "outline": "as §1"}, "IGF1R": {"biological_target": "T29, IGF1R (Homo sapiens, UniProt P08069)", "T29 construct": "host or cells: HEK293", "T29 sequence (P08069 31-1367)": "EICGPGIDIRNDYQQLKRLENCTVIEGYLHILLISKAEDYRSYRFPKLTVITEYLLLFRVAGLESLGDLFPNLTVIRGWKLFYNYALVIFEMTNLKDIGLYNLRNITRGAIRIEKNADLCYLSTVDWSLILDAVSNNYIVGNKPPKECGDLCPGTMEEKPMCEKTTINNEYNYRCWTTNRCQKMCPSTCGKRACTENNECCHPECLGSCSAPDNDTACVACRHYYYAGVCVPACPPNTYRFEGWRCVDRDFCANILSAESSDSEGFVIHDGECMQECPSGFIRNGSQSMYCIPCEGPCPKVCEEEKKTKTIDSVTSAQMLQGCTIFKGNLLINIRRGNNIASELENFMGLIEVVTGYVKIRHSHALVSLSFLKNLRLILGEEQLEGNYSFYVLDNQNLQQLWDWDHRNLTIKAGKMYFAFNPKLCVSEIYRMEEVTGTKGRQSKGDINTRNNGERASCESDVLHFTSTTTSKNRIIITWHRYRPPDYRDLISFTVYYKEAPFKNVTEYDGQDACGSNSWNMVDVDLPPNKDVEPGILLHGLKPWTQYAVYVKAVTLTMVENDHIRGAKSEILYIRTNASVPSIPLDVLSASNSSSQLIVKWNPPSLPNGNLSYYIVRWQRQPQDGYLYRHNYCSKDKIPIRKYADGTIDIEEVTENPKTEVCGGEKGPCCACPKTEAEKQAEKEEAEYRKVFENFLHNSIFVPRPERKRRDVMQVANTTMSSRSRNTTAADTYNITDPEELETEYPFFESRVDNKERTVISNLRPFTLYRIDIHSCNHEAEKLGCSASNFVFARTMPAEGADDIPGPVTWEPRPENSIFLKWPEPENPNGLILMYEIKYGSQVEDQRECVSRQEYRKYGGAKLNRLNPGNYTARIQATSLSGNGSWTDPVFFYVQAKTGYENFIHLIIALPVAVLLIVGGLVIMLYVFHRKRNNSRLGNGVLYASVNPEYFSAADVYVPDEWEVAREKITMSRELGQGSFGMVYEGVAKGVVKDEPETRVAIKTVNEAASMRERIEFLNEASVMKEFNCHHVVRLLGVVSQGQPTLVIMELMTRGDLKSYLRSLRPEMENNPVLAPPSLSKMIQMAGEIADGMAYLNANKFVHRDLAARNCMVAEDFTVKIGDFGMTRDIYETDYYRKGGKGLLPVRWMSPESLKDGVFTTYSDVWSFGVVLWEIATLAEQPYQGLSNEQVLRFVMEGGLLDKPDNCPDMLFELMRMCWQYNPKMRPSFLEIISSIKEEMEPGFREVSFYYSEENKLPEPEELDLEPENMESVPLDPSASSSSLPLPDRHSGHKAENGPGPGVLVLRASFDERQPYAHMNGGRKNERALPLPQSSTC", "outline": "as §1"}}}
{"smiles": "CCC(=O)Nc1cc(Nc2cc(NC3CC3)n3ncc(C#N)c3n2)c(F)cc1N1CCC[C@H](NC)C1", "note": "[Compound 2, (S)-N-(5-((3-cyano-7-(cyclopropylamino)pyrazolo[1,5-a]pyrimidin-5-yl)amino)-4-fluoro-2-(3-(methylamino)piperidin-1-yl)phenyl)propionamide]", "values": [{"measurement": "receptor occupancy at 10 µM", "setting": "PAK6", "result": 15.3, "unit": "%"}, {"measurement": "receptor occupancy at 10 µM", "setting": "WEE1", "result": 17.8, "unit": "%"}, {"measurement": "receptor occupancy at 10 µM", "setting": "SIK1", "result": 6.4, "unit": "%"}, {"measurement": "receptor occupancy at 10 µM", "setting": "HIPK3", "result": 25.5, "unit": "%"}, {"measurement": "receptor occupancy at 10 µM", "setting": "CHEK2", "result": -0.8, "unit": "%"}, {"measurement": "receptor occupancy at 10 µM", "setting": "ERN1", "result": 3, "unit": "%"}, {"measurement": "receptor occupancy at 10 µM", "setting": "PKMYT1", "result": 5.5, "unit": "%"}, {"measurement": "receptor occupancy at 10 µM", "setting": "FYN", "result": 18.1, "unit": "%"}, {"measurement": "receptor occupancy at 10 µM", "setting": "TYRO3", "result": 3.9, "unit": "%"}, {"measurement": "receptor occupancy at 10 µM", "setting": "JAK3", "result": 4.6, "unit": "%"}, {"measurement": "receptor occupancy at 10 µM", "setting": "NEK2", "result": 4.2, "unit": "%"}, {"measurement": "receptor occupancy at 10 µM", "setting": "PRKCE", "result": 6.2, "unit": "%"}, {"measurement": "receptor occupancy at 10 µM", "setting": "CDK14 + Y", "result": 29.4, "unit": "%"}, {"measurement": "receptor occupancy at 10 µM", "setting": "MYLK4", "result": 38.5, "unit": "%"}, {"measurement": "receptor occupancy at 10 µM", "setting": "WEE2", "result": 4.5, "unit": "%"}, {"measurement": "receptor occupancy at 10 µM", "setting": "CDKL5", "result": 17.2, "unit": "%"}, {"measurement": "receptor occupancy at 10 µM", "setting": "PRKACB", "result": 9.2, "unit": "%"}, {"measurement": "receptor occupancy at 10 µM", "setting": "CAMK2D", "result": 18.4, "unit": "%"}, {"measurement": "receptor occupancy at 10 µM", "setting": "EPHB1", "result": 4.7, "unit": "%"}, {"measurement": "receptor occupancy at 10 µM", "setting": "SBK3", "result": 15.9, "unit": "%"}, {"measurement": "receptor occupancy at 10 µM", "setting": "RIPK1", "result": 9.1, "unit": "%"}, {"measurement": "receptor occupancy at 10 µM", "setting": "RPS6KA1", "result": 7.1, "unit": "%"}, {"measurement": "receptor occupancy at 10 µM", "setting": "STK35", "result": 6.5, "unit": "%"}, {"measurement": "receptor occupancy at 10 µM", "setting": "SNRK", "result": -2, "unit": "%"}, {"measurement": "receptor occupancy at 10 µM", "setting": "DYRK1B", "result": 38.3, "unit": "%"}, {"measurement": "receptor occupancy at 10 µM", "setting": "MAP3K2", "result": 13.8, "unit": "%"}, {"measurement": "receptor occupancy at 10 µM", "setting": "PRKAA1", "result": 3.8, "unit": "%"}, {"measurement": "receptor occupancy at 10 µM", "setting": "TEC", "result": 9.1, "unit": "%"}, {"measurement": "receptor occupancy at 10 µM", "setting": "IGF1R", "result": -2.6, "unit": "%"}]}
